# Source: ChEMBL document CHEMBL4024706 (Eur J Med Chem, 2017)
# Columns and labels:
# [1] = molecular target: Fibroblast growth factor receptor 3 (Homo sapiens) (UniProt P22607); experiment: Inhibition of wild-type human partial length FGFR3 (R442 to S771 residues) expressed in bacterial expression system assessed as residual activity at 1 uM by Kinomescan method relative to control
# [2] = molecular target: Mitogen-activated protein kinase kinase kinase 10 (Homo sapiens) (UniProt Q02779); experiment: Inhibition of wild-type human partial length MLK2 (V52 to W380 residues) expressed in bacterial expression system assessed as residual activity at 1 uM by Kinomescan method relative to control
# [3] = molecular target: Serine/threonine-protein kinase/endoribonuclease IRE1 (Homo sapiens) (UniProt O75460); experiment: Inhibition of wild-type human partial length ERN1 (S551 to E852 residues) expressed in mammalian expression system assessed as residual activity at 1 uM by Kinomescan method relative to control
# [4] = molecular target: Myotonin-protein kinase (Homo sapiens) (UniProt Q09013); experiment: Inhibition of wild-type human partial length DMPK (V47 to V415 residues) expressed in bacterial expression system assessed as residual activity at 1 uM by Kinomescan method relative to control
# [5] = molecular target: Mitogen-activated protein kinase kinase kinase 1 (Homo sapiens) (UniProt Q13233); experiment: Inhibition of wild-type human partial length MAP3K1 (L1202 to W1512 residues) expressed in mammalian expression system assessed as residual activity at 1 uM by Kinomescan method relative to control
# [6] = system: Tyrosine-protein kinase ABL1 (Homo sapiens), P00519 [M351T]; experiment: Inhibition of human phosphorylated ABL1 M351T mutant (S229 to K512 residues) expressed in mammalian expression system assessed as residual activity at 1 uM by Kinomescan method relative to control
# [7] = molecular target: RAF proto-oncogene serine/threonine-protein kinase (Homo sapiens) (UniProt P04049); experiment: Inhibition of wild-type human partial length RAF1 (I330 to T640 residues) expressed in bacterial expression system assessed as residual activity at 1 uM by Kinomescan method relative to control
# [8] = molecular target: Glycogen synthase kinase-3 beta (Homo sapiens) (UniProt P49841); experiment: Inhibition of wild-type human full length GSK3B (M1 to T433 residues) expressed in mammalian expression system assessed as residual activity at 1 uM by Kinomescan method relative to control
# [9] = molecular target: Ribosomal protein S6 kinase alpha-4 (Homo sapiens) (UniProt O75676); experiment: Inhibition of wild-type human partial length C-terminal RPS6KA4 kinase domain 2 (M375 to T705 residues) expressed in mammalian expression system assessed as residual activity at 1 uM by Kinomescan method relative to control
# [10] = molecular target: Tyrosine-protein kinase receptor Tie-1 (Homo sapiens) (UniProt P35590); experiment: Inhibition of wild-type human partial length TIE1 (T819 to A1138 residues) expressed in bacterial expression system assessed as residual activity at 1 uM by Kinomescan method relative to control
# [11] = molecular target: Ephrin type-A receptor 7 (Homo sapiens) (UniProt Q15375); experiment: Inhibition of wild-type human partial length EPHA7 (Y608 to S912 residues) expressed in bacterial expression system assessed as residual activity at 1 uM by Kinomescan method relative to control
# [12] = molecular target: Mitogen-activated protein kinase kinase kinase kinase 1 (Homo sapiens) (UniProt Q92918); experiment: Inhibition of wild-type human full length HPK1 (M1 to R799 residues) expressed in bacterial expression system assessed as residual activity at 1 uM by Kinomescan method relative to control
# [13] = system: Epidermal growth factor receptor (Homo sapiens), P00533 [T790M]; experiment: Inhibition of human partial length EGFR T790M mutant (R669 to G1022 residues) expressed in mammalian expression system assessed as residual activity at 1 uM by Kinomescan method relative to control
# [14] = molecular target: Serine/threonine-protein kinase ULK2 (Homo sapiens) (UniProt Q8IYT8); experiment: Inhibition of wild-type human partial length ULK2 (M1 to S301 residues) expressed in mammalian expression system assessed as residual activity at 1 uM by Kinomescan method relative to control
# [15] = molecular target: Calcium/calmodulin-dependent protein kinase type 1G (Homo sapiens) (UniProt Q96NX5); experiment: Inhibition of wild-type human partial length CAMK1G (M1 to A342 residues) expressed in bacterial expression system assessed as residual activity at 1 uM by Kinomescan method relative to control
# [16] = system: Mast/stem cell growth factor receptor Kit (Homo sapiens), P10721 [V559D]; experiment: Inhibition of human partial length KIT V559D mutant (Y545 to D952 residues) expressed in bacterial expression system assessed as residual activity at 1 uM by Kinomescan method relative to control
# [17] = molecular target: Serine/threonine-protein kinase MRCK beta (Homo sapiens) (UniProt Q9Y5S2); experiment: Inhibition of wild-type human partial length MRCKB (L56 to S417 residues) expressed in bacterial expression system assessed as residual activity at 1 uM by Kinomescan method relative to control
# [18] = molecular target: Cyclin-dependent kinase 2 (Homo sapiens) (UniProt P24941); experiment: Inhibition of wild-type human full length CDK2 (M1 to L298 residues) expressed in bacterial expression system assessed as residual activity at 1 uM by Kinomescan method relative to control
# [19] = molecular target: Calcium-dependent protein kinase 1 (Plasmodium falciparum) (UniProt P62344); experiment: Inhibition of wild-type Plasmodium falciparum isolate 3D7 full length CDPK1 (M1 to S524 residues) expressed in mammalian expression system assessed as residual activity at 1 uM by Kinomescan method relative to control
# [20] = molecular target: Interleukin-1 receptor-associated kinase 1 (Homo sapiens) (UniProt P51617); experiment: Inhibition of wild-type human partial length IRAK1 (R194 to S712 residues) expressed in mammalian expression system assessed as residual activity at 1 uM by Kinomescan method relative to control
# [21] = molecular target: Microtubule-associated serine/threonine-protein kinase 1 (Homo sapiens) (UniProt Q9Y2H9); experiment: Inhibition of wild-type human partial length MAST1 (S346 to V730 residues) expressed in mammalian expression system assessed as residual activity at 1 uM by Kinomescan method relative to control
# [22] = molecular target: Serine/threonine-protein kinase SBK1 (Homo sapiens) (UniProt Q52WX2); experiment: Inhibition of wild-type human partial length SBK1 (P23 to P348 residues) expressed in mammalian expression system assessed as residual activity at 1 uM by Kinomescan method relative to control
# [23] = molecular target: BDNF/NT-3 growth factors receptor (Homo sapiens) (UniProt Q16620); experiment: Inhibition of wild-type human partial length TRKB (Q547 to G838 residues) expressed in mammalian expression system assessed as residual activity at 1 uM by Kinomescan method relative to control
# U2932 = experiment: Cell cycle arrest in human U2932 cells assessed as increase in accumulation at G0/G1 phase after 48 hrs by propidium iodide/RNase staining based flow cytometric method; assay type: functional
# [24] = molecular target: Serine/threonine-protein kinase tousled-like 2 (Homo sapiens) (UniProt Q86UE8); experiment: Inhibition of wild-type human partial length TLK2 (E424 to N749 residues) expressed in bacterial expression system assessed as residual activity at 1 uM by Kinomescan method relative to control
# Chain of RAF proto-oncogene serine/threonine-protein kinase (Homo sapiens) (P04049 whole entry, the tested form may be a part): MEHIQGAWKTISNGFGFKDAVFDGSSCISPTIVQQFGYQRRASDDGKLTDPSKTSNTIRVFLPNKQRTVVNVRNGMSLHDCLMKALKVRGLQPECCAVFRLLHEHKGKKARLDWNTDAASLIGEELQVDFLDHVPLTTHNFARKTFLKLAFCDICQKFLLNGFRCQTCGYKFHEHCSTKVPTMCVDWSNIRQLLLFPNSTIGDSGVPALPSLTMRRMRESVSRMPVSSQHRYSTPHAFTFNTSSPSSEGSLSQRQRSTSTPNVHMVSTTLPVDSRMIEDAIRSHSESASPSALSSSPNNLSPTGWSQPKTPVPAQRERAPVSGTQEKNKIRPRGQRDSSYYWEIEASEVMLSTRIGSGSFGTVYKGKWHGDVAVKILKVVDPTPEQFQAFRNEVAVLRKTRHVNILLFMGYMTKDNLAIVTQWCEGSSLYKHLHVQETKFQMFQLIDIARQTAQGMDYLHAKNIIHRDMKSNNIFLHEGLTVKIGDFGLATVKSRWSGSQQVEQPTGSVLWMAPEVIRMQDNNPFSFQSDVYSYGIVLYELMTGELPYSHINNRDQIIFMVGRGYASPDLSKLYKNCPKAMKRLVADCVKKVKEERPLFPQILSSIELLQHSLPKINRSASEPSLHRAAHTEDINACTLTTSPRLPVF
# Chain of Fibroblast growth factor receptor 3 (Homo sapiens) (P22607 23-806 limits assumed): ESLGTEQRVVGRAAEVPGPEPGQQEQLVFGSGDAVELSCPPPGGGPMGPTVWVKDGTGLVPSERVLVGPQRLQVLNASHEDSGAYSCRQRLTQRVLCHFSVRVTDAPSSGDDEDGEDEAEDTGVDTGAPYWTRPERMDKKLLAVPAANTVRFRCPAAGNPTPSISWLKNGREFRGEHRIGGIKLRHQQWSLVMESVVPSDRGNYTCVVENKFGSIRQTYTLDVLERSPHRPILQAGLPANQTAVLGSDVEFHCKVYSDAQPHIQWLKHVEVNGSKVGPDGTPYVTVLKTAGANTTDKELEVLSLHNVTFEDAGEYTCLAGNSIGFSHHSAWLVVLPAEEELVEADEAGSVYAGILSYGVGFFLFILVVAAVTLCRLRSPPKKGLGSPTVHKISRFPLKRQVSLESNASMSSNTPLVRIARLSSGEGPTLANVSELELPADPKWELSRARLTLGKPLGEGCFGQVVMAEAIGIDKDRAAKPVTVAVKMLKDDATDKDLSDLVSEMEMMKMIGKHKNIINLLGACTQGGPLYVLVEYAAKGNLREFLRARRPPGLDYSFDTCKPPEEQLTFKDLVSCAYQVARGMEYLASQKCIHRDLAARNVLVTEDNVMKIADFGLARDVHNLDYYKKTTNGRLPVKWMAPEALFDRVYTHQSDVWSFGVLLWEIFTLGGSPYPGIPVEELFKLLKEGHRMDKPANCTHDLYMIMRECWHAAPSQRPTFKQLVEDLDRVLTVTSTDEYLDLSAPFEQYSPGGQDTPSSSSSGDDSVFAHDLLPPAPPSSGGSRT
# Chain of Tyrosine-protein kinase receptor Tie-1 (Homo sapiens) (P35590 whole entry, the tested form may be a part): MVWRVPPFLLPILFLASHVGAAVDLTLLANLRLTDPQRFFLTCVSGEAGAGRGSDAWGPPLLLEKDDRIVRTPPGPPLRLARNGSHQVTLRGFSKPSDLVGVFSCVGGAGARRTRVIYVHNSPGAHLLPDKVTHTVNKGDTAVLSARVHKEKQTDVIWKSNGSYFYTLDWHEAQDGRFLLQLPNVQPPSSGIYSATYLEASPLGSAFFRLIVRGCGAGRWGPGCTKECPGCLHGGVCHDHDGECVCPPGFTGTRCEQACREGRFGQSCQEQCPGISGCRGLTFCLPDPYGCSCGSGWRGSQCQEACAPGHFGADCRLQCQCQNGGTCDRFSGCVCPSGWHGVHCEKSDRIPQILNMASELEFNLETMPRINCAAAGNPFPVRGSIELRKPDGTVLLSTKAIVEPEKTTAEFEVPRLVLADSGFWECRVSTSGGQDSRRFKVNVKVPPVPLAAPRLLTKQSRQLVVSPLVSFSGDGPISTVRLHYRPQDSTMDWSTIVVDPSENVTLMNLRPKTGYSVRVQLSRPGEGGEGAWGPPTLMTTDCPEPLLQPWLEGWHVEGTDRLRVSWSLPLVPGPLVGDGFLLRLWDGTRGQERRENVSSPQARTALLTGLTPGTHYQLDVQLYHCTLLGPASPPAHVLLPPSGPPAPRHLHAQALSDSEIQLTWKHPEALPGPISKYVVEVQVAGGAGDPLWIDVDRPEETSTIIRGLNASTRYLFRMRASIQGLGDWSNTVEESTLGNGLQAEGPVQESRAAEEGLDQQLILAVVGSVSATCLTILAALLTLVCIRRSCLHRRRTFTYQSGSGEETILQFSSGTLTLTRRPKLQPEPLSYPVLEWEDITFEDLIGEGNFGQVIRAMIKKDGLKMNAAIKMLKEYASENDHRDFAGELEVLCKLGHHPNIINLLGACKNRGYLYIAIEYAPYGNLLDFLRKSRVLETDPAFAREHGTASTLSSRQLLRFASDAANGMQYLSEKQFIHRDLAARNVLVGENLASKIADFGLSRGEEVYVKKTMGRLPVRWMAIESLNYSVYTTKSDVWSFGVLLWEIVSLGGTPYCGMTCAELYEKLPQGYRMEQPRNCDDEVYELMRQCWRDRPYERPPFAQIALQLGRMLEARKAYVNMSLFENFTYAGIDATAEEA
# Chain of Serine/threonine-protein kinase ULK2 (Homo sapiens) (Q8IYT8 whole entry, the tested form may be a part): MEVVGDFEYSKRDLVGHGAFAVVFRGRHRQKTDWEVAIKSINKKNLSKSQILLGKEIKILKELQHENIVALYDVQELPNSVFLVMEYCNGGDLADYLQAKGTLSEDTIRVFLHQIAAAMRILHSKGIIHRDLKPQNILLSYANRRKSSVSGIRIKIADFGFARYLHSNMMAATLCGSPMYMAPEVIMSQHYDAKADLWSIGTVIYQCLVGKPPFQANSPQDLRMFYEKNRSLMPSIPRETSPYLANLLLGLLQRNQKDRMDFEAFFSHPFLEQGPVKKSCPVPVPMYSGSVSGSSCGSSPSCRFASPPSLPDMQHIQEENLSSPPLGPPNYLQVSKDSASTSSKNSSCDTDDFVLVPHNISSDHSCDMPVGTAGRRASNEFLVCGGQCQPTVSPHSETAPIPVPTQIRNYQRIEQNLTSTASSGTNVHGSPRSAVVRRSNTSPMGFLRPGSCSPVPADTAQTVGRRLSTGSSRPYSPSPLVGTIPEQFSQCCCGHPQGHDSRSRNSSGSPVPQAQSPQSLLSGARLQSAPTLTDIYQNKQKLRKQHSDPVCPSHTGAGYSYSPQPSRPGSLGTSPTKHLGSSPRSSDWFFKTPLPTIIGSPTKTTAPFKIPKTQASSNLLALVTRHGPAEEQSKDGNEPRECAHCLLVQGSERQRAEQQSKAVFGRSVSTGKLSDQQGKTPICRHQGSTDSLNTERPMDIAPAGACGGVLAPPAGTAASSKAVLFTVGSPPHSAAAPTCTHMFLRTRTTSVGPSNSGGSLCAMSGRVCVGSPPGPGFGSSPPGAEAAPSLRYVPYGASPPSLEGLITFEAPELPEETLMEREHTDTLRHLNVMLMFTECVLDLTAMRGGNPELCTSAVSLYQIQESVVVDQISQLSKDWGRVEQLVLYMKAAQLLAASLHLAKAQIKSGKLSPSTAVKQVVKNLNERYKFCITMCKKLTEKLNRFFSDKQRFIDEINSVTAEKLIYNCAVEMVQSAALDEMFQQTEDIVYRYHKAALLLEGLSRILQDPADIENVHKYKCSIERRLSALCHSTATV
# Chain of Glycogen synthase kinase-3 beta (Homo sapiens) (P49841 whole entry, looked up, the tested form may be a part): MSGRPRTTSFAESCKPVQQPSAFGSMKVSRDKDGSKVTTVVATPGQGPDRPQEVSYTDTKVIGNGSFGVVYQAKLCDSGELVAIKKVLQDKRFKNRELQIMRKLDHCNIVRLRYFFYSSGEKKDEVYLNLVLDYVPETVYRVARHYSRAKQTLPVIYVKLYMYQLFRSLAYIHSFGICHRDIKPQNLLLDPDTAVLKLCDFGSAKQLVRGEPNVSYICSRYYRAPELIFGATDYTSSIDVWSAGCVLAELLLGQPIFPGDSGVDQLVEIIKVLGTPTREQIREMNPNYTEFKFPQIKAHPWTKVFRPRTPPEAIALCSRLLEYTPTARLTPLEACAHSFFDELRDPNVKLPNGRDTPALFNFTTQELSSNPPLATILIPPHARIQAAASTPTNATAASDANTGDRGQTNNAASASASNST
# Chain of Calcium-dependent protein kinase 1 (Plasmodium falciparum) (P62344 2-524 limits assumed): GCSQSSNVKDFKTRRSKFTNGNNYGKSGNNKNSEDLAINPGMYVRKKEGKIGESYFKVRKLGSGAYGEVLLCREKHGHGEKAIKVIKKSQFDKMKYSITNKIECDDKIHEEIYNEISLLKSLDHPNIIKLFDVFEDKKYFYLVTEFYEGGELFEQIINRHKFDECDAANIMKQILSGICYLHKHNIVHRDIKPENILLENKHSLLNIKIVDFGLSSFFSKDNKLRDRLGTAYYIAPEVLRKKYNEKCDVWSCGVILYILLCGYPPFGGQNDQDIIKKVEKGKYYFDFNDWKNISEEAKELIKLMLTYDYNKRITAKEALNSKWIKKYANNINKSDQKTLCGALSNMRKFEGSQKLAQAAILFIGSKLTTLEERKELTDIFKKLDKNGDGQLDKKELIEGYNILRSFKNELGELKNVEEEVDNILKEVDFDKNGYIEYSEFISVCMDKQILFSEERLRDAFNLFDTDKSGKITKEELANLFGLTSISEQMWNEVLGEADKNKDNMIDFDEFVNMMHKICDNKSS
# Chain of Serine/threonine-protein kinase SBK1 (Homo sapiens) (Q52WX2 whole entry, the tested form may be a part): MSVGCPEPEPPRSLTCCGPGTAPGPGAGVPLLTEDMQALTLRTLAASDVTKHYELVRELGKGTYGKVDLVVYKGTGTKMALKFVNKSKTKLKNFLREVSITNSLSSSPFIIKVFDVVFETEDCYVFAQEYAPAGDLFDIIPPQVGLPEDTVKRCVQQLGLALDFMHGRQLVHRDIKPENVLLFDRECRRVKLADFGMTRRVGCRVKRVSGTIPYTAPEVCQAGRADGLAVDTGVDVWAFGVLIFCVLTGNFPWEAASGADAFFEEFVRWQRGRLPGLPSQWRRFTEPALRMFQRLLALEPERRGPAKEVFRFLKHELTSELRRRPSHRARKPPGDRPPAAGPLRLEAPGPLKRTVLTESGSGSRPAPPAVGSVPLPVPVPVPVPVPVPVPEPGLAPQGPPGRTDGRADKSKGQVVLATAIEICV
structure (smiles),measurement,setting,value
C=CC(=O)Nc1cc(Nc2cc(-c3cccc(NC(=O)c4ccc(C(C)(C)C)cc4)c3C)cn(C)c2=O)ccc1C(=O)N1CCOCC1,Activity,[1],89%
same,Activity,[2],100%
same,Activity,[3],100%
same,Activity,[4],95%
same,Activity,[5],91%
same,Activity,[6],97%
same,Activity,[7],99%
same,Activity,[8],87%
same,Activity,[9],100%
same,Activity,[10],87%
same,Activity,[11],98%
same,Activity,[12],100%
same,Activity,[13],100%
same,Activity,[14],80%
same,Activity,[15],100%
same,Activity,[16],93%
same,Activity,[17],98%
same,Activity,[18],99%
same,Activity,[19],85%
same,Activity,[20],100%
same,Activity,[21],98%
same,Activity,[22],100%
same,Activity,[23],80%
same,Activity,U2932,Dose-dependent effect
same,Activity,[24],100%
